Test results published in ChEMBL document CHEMBL1201862, “PubChem BioAssay data set” (2004).
Activity calls are given as the source filed them.

Legend:
[1] = target: Estrogen receptor beta (Homo sapiens, UniProt Q92731);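 further: recombinant ER-beta bound to coactivator SRC1 peptide in presence of estradiol agonist; inhibitors block coactivator peptide binding and lower the FRET signal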
[2] = target: Cytochrome P450 2C19 (Homo sapiens, UniProt P33261); assay: Cytochrome panel assay with activity outcomes. Panel member name: p450-cyp2c19 Compounds with AC50 equal or less than 10 uM are considered active; type: functional; settings: read-out: AC50
[3] = target: T1, Tyrosine-protein phosphatase non-receptor type 5 (Homo sapiens, UniProt P54829); assay: STEP phosphatase inhibitors, confirmation, biochemical, fluorescence intensity, uHTS hits (AID 602372); type: functional; settings: read-out: IC50_Mean
T1 sequence (P54829 whole entry): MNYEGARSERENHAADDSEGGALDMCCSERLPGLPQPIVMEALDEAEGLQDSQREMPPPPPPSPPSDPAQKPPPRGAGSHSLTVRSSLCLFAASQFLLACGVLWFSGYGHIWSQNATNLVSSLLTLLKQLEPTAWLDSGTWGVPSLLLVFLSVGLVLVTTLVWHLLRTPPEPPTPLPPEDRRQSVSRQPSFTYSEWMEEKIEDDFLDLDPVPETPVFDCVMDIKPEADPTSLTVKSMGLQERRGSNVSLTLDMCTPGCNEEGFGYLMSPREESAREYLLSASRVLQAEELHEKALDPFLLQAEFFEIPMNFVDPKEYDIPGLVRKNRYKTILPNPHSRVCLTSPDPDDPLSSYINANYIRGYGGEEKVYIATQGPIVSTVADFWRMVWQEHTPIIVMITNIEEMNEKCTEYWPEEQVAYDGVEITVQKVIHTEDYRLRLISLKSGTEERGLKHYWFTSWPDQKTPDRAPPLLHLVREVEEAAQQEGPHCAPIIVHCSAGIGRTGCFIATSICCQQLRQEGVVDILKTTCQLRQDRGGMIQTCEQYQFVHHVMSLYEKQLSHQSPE

[4] = target: T2, Tyrosine-protein phosphatase non-receptor type 11 (Homo sapiens, UniProt Q06124); assay: SHP2 phosphatase inhibition, dose response, selectivity assay for STEP inhibitor project, biochemical (AID 602367); type: functional; settings: read-out: IC50_Mean
T2 sequence (Q06124 whole entry): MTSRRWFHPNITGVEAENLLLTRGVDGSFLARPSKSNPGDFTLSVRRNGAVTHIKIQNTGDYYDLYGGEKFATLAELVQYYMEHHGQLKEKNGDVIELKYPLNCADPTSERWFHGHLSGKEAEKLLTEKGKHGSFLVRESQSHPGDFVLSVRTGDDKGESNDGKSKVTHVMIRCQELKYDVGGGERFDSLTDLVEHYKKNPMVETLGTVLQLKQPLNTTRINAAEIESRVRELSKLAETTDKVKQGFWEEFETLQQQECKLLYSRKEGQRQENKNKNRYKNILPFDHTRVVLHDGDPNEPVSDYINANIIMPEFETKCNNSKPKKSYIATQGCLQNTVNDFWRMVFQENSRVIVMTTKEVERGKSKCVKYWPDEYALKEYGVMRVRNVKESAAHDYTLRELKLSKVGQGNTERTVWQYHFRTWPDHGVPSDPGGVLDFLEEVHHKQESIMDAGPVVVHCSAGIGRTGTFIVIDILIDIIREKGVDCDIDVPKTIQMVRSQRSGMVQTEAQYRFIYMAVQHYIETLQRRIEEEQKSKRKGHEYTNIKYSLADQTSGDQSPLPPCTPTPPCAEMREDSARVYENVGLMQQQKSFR

[5] = target: Voltage-gated N-type calcium channel alpha-1B subunit/Amyloid beta A4 precursor protein-binding family A member 1 (Homo sapiens, UniProt Q00975+Q02410); type: protein assay
[6] = target: T3, Dual specificity protein phosphatase 6 (Rattus norvegicus, UniProt Q64346); assay: MKP-3 phosphatase inhibitors, primary screen, biochemical, rat enzyme, in vitro (AID 425)
T3 sequence (Q64346 whole entry): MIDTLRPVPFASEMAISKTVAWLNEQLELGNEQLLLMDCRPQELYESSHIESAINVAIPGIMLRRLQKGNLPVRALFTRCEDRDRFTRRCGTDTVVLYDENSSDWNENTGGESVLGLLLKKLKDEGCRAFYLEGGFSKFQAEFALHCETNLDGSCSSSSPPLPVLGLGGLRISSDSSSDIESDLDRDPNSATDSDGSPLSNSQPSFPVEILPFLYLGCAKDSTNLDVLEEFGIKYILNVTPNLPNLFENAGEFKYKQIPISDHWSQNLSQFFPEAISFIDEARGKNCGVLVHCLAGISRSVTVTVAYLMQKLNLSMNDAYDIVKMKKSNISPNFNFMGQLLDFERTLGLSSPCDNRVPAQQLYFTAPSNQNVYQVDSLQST

[7] = target: T4, DNA repair and recombination protein RAD54-like (Homo sapiens, UniProt Q92698); assay: inhibitors of human RAD54 branch migration, confirmation, biochemical, fluorescence, cherry-picked samples, dose series (AID 651657); type: functional
T4 sequence (Q92698 whole entry): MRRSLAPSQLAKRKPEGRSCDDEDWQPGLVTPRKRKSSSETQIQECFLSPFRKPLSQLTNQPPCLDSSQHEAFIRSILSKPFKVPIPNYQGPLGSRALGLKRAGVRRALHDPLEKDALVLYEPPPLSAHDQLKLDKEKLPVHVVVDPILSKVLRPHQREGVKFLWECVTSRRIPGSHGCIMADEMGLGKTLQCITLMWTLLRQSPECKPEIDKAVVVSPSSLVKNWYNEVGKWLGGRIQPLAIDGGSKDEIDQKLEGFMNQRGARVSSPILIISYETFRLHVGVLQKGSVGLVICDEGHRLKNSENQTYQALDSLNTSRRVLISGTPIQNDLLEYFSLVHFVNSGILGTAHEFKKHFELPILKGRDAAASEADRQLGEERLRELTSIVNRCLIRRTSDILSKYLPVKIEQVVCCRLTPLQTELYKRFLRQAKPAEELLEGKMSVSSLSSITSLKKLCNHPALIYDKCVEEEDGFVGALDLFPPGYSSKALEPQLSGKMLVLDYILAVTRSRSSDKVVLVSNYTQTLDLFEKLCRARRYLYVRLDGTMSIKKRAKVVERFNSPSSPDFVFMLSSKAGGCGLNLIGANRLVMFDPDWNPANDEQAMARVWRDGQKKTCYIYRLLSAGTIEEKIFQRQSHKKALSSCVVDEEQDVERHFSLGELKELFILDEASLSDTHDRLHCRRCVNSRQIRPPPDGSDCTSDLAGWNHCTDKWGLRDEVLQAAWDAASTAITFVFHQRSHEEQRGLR

Sequence of Cytochrome P450 2C19 (P33261 whole entry): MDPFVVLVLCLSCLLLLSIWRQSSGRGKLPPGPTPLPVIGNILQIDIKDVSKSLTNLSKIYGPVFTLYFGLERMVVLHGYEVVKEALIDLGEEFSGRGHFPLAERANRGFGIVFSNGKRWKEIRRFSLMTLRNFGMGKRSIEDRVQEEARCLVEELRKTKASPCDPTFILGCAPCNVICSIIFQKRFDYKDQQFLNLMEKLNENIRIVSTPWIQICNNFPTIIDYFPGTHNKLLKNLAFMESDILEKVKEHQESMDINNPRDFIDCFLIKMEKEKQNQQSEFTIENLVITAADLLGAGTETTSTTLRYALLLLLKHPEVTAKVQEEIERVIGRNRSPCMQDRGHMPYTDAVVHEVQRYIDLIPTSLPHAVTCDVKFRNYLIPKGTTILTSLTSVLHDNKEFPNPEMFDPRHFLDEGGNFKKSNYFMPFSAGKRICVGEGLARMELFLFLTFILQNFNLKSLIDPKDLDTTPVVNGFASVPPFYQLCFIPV
Sequence of Estrogen receptor beta (Q92731 whole entry): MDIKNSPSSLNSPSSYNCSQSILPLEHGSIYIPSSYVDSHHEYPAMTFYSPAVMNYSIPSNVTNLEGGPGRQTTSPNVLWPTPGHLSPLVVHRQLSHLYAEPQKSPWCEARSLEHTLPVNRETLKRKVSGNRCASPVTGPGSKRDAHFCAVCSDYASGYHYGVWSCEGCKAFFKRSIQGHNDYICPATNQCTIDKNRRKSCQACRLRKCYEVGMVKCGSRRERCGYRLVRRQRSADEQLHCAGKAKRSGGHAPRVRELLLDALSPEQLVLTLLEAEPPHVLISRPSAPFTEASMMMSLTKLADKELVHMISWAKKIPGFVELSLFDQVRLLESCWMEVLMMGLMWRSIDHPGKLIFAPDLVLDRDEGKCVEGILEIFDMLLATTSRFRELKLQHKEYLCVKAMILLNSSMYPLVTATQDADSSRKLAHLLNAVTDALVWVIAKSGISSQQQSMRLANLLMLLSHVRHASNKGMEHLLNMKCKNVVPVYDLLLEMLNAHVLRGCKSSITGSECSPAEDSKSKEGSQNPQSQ
Sequence of Voltage-gated N-type calcium channel alpha-1B subunit/Amyloid beta A4 precursor protein-binding family A member 1 (Q00975 whole entry): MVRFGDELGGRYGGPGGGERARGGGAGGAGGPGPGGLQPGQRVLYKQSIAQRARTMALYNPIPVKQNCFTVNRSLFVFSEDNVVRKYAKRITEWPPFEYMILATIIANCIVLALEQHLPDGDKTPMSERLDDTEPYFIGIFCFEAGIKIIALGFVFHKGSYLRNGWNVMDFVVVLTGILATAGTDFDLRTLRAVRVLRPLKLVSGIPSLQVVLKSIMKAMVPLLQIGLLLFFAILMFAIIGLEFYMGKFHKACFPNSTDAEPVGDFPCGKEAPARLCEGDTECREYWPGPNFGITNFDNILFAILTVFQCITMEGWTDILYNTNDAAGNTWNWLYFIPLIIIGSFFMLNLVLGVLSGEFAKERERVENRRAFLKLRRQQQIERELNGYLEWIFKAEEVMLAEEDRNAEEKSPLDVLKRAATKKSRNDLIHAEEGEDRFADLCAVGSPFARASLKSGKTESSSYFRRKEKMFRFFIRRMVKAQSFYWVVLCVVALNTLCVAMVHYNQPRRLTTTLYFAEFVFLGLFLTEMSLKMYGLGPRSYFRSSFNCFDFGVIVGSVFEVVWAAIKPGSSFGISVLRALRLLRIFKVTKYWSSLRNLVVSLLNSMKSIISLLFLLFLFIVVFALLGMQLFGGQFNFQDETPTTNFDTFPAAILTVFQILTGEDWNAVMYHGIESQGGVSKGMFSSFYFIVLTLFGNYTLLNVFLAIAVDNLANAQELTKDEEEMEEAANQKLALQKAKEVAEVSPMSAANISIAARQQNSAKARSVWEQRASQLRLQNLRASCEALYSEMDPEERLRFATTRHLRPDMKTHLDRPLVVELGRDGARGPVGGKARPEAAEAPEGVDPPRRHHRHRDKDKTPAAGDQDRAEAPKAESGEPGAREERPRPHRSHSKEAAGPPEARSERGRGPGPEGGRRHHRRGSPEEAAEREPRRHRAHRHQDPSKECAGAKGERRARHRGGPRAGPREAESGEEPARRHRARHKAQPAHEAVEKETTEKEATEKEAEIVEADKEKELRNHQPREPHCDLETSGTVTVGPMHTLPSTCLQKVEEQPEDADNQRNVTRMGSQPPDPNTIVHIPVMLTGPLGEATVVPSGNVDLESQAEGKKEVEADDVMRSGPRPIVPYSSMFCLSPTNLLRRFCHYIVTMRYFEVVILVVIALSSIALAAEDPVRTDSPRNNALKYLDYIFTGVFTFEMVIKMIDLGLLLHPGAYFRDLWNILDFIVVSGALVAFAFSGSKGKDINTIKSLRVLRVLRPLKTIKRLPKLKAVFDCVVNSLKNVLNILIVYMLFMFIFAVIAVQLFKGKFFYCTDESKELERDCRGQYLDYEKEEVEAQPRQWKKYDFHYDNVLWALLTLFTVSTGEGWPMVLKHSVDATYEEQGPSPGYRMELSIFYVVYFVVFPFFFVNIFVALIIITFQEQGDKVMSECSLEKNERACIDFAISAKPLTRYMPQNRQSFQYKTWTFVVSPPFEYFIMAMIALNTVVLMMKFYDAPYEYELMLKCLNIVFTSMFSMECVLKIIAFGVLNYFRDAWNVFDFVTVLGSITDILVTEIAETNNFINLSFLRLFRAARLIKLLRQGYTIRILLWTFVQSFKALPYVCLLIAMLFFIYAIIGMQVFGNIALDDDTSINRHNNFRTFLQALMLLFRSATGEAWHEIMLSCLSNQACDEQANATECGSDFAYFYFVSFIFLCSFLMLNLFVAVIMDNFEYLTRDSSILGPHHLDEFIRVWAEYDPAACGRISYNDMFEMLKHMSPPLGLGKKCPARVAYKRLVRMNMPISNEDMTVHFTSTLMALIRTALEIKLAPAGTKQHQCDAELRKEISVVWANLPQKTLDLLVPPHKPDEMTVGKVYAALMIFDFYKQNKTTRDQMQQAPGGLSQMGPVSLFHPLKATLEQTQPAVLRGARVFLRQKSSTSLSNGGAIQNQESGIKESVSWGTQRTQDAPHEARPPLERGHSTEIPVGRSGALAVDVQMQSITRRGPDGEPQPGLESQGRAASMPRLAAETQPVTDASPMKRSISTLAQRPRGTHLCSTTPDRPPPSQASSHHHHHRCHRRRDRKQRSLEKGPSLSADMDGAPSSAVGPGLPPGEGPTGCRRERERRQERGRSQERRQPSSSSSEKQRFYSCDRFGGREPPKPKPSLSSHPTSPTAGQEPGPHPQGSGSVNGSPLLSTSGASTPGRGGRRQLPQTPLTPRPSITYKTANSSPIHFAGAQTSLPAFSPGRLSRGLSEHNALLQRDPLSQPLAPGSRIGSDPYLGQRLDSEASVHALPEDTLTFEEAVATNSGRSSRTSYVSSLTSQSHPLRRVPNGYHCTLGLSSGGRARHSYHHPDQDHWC
Sequence of Voltage-gated N-type calcium channel alpha-1B subunit/Amyloid beta A4 precursor protein-binding family A member 1 (Q02410 whole entry): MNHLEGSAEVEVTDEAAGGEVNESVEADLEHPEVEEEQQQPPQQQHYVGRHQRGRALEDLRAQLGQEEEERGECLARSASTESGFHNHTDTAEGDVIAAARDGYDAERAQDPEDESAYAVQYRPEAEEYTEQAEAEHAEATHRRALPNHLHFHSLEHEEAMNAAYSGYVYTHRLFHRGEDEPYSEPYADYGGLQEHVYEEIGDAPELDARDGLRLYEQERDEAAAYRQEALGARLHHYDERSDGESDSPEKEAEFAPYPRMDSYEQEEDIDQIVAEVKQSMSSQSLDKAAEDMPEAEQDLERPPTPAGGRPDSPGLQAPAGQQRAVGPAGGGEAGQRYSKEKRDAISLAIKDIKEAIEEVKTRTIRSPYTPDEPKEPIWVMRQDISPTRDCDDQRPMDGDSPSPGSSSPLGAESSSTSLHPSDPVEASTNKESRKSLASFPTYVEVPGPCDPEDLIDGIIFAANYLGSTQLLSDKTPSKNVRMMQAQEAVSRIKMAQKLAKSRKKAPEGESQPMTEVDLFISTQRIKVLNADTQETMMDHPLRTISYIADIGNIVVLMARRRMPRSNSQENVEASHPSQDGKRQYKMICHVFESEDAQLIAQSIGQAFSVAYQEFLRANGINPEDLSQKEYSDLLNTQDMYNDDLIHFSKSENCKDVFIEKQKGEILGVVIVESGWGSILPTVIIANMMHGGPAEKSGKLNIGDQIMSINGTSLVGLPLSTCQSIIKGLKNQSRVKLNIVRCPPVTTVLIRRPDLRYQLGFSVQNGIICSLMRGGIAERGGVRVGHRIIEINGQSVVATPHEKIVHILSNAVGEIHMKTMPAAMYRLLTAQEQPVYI

## COc1ccc(C(=O)Nc2nc3c(s2)Cc2cc(OC)ccc2-3)cc1
[1]
  IC50: > 50 µM (not active)
[2]
  AC50: 5.01 µM (inconclusive)

## CSc1ccc(C=NNc2ccc(S(=O)(=O)Nc3ccccc3C(=O)O)cc2[N+](=O)[O-])cc1
[3]
  IC50: 4.12 µM (active)
[4]
  IC50: 1.11 µM (active)

## O=C(O)COc1ccc(/C=N/NC(=O)c2ccc(-c3csc(Nc4ccc(Cl)cc4)n3)cc2)cc1
[5]
  IC50: > 50 µM (inactive)
[6]
  IC50: 27.3 µM (active)

## COc1cc(NCCCNC(C)C)c2nccc(C)c2c1
[7]
  AC50: 49.6 µM (active)
